For one experiment, the system named is Plasmodium falciparum. In words: Antimalarial activity against chloroquine-resistant Plasmodium falciparum FcB1. It counts as functional, organism-based.
Experiment [1] relates to MRC5. In words: Cytotoxicity against human diploid embryonic lung cell line (MRC5 cells) using the colorimetric MTT assay. It counts as functional.
For experiment [2], the target named is T1, Histidine-rich protein PFHRP-II (Plasmodium falciparum) (UniProt P05227).
T1 sequence (whole entry): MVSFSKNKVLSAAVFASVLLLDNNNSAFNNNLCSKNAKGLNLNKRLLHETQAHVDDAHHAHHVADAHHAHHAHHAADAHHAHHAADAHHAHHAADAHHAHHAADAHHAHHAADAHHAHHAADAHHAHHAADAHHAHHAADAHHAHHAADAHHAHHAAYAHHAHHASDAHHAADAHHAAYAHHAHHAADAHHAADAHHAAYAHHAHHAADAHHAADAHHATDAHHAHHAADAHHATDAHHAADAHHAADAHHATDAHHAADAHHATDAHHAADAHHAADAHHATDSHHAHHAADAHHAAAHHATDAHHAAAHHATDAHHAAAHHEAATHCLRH
In words: Vacuolar accumulation ratio (VAR) on beta-hematin inhibitory activity. The format is functional.

In experiment [3] the test system is MRC5. Description: Relative inhibitory activity to cytotoxicity as selectivity index (CC50/IC50). The format is functional.
The target in experiment [4] is T1, Histidine-rich protein PFHRP-II (Plasmodium falciparum). Description: Inhibition of 1-monooleoyl glycerol (MOG) induced beta-hematin formation at 200 uM. It counts as functional.

In turn, `COc1ccc(CNCCCN2CCN(CCCN(CC(C)C)CC(C)C)CC2)cc1` returned an IC50 in the experiment with Plasmodium falciparum of 111 nM. In the experiment on MRC5 [1], this compound came in with a cytotoxic concentration (CC50) of 12 µM. Moreover, the VAR in experiment [2] was 476000.
In the experiment on MRC5 [1], `CCN(CC)CCCC(C)Nc1ccnc2cc(Cl)ccc12` (stereo unspecified) [CHLOROQUINE] gave a CC50 of 50 µM. The VAR in experiment [2] turned out to be 5310.
Consider `COc1ccc(C(=O)NCCCN2CCN(CCCN(CC(C)C)CC(C)C)CC2)cc1`, for which, in the experiment on Plasmodium falciparum, half-maximal inhibition (IC50) was put at 4430 nM. Besides, in the experiment on MRC5 [1], the midpoint of cytotoxicity, the CC50, lay at 57.7 µM. For the same compound, the VAR in experiment [2] is 3100.
The compound `CC(C)CN(CCCN1CCN(CCCNCc2ccccc2)CC1)CC(C)C` had a half-maximal inhibitory concentration (IC50) in the experiment with Plasmodium falciparum of 454 nM. Besides, in the experiment on MRC5 [3], the Selectivity index stood at 46. This compound showed a half-maximal cytotoxic concentration (CC50) in the experiment with MRC5 [1] of 21 µM. The VAR in experiment [2] stood at 476000.
On to `CC(C)CN(CCCN1CCN(CCCNc2ccnc3ccccc23)CC1)CC(C)C`, for which the half-inhibitory concentration (IC50) with Plasmodium falciparum turned out to be 18.9 nM. The same compound gave a Selectivity index with MRC5 [3] of 1587. The compound further yielded a cytotoxic concentration (CC50) with MRC5 [1] of 30 µM. Further, in experiment [2], the VAR came out at 882000.
As for `CC(C)CN(CCCN1CCN(CCCNc2ccc([N+](=O)[O-])cn2)CC1)CC(C)C`, inhibition in the experiment on Plasmodium falciparum was half-maximal at 758 nM (IC50). In the experiment with MRC5 [3], this compound gave a Selectivity index of 65. The same compound yielded an inhibition in experiment [4] of 53%. This compound also registered a CC50 in the experiment with MRC5 [1] of 49 µM. Besides, the VAR in experiment [2] came to 3800.
Turning to `CC(C)CN(CCCN1CCN(CCCNc2nc3ccccc3o2)CC1)CC(C)C`, the midpoint of inhibition in the experiment with Plasmodium falciparum, the IC50, lay at 1330 nM. The Selectivity index in the experiment on MRC5 [3] is recorded as >75. For the same compound, the 50% cytotoxic concentration (CC50) with MRC5 [1] was > 100 µM. Besides, in experiment [2], the VAR is 298000.
For `CC(C)CN(CCCN1CCN(CCCNc2cnccn2)CC1)CC(C)C`, in that order: 531 nM, 151, 80 µM and 3600.
In the experiment with Plasmodium falciparum, `CC(C)CN(CCCN1CCN(CCCNCc2ccc(Cl)cc2)CC1)CC(C)C` registered an IC50 of 40.6 nM. Half-maximal cytotoxicity in the experiment on MRC5 [1] (CC50) was put at 13 µM. Further, the VAR in experiment [2] worked out at 475000.
Take `CC(C)CN(CCCN1CCN(CCCNc2ccnc3cc(Cl)ccc23)CC1)CC(C)C`: the VAR in experiment [2] was found to be 597000.
As to `CC(C)CN(CCCN1CCN(CCCNC(=O)c2ccc3ccccc3c2)CC1)CC(C)C`, half-maximal inhibition with Plasmodium falciparum (IC50) was put at 672 nM. In addition, in the experiment with MRC5 [3], the Selectivity index was >65. The compound also displayed an inhibition in experiment [4] of 54%. This compound displayed a CC50 in the experiment on MRC5 [1] of 44 µM. Moreover, in experiment [2], the VAR amounted to 3300.
For `CC(C)CN(CCCN1CCN(CCCNC(=O)c2ccncc2)CC1)CC(C)C`, in that order: 1550 nM, 65, 0%, > 100 µM and 3200.
For `CC(C)CN(CCCN1CCN(CCCNCc2ccc3ccccc3c2)CC1)CC(C)C`, in that order: 121 nM, 54, 98%, 6.5 µM and 475000.
Regarding `CC(C)CN(CCCN1CCN(CCCNCc2ccncc2)CC1)CC(C)C`, it took 842 nM to reach half-maximal inhibition with Plasmodium falciparum (IC50). The Selectivity index with MRC5 [3] amounted to 36. The midpoint of cytotoxicity in the experiment on MRC5 [1], the CC50, lay at 30 µM. The VAR in experiment [2] came to 504000.
`CC(C)CN(CCCN1CCN(CCCNc2nc3ccccc3[nH]2)CC1)CC(C)C` registered an IC50 in the experiment on Plasmodium falciparum of 87.3 nM. The compound also displayed a Selectivity index in the experiment with MRC5 [3] of 183. Further, the CC50 in the experiment with MRC5 [1] turned out to be 16 µM. For the same compound, the VAR in experiment [2] came to 388000.
As to `CC(C)CN(CCCN1CCN(CCCNc2[nH]cnc3ncnc2-3)CC1)CC(C)C`, the half-inhibitory concentration (IC50) in the experiment on Plasmodium falciparum turned out to be 1230 nM. The compound further gave a Selectivity index in the experiment with MRC5 [3] of 67. In experiment [4], this compound had an inhibition of 53%. Also, the CC50 with MRC5 [1] came to 82 µM. In addition, the VAR in experiment [2] was found to be 6200.
For `CC(C)CN(CCCN1CCN(CCCNC(=O)c2ccc(Cl)cc2)CC1)CC(C)C`, in that order: 5270 nM, 18, 0%, 93 µM and 3400.

(Values after ChEMBL document CHEMBL1146633, “Synthesis and antimalarial evaluation of new 1,4-bis(3-aminopropyl)piperazine derivatives” (Bioorg Med Chem Lett, 2003).)
